Experimental data published in patent US6362369B1, “Phthalic acid diamide derivatives fluorine-containing aniline compounds as starting material, agricultural and horticultural insecticides, and a method for application of the insecticides” (Nihon Nohyaku Co., Ltd., priority 1997, dated 2002).

Key:
[1] = system: common cutworm (Spodoptera Litura); assay: Insecticidal effect on common cutworm (Test Example 2); format: in vivo; settings: 500 ppm, 25° C.; for Insecticidal effect on common cutworm (Test Example 2), judged grade / Insecticidal effect (Test Example 2), judged from mortality: cabbage leaf dip; for Insecticidal effect on common cutworm (Test Example 2), judged grade: second-instar larvae; for Insecticidal effect on common cutworm (Test Example 2), judged grade / Insecticidal effect, Test Example 2: eight days after inoculation; for Insecticidal effect (Test Example 2), judged from mortality: 8 days after inoculation; for Insecticidal effect, Test Example 2: cabbage leaf immersed
Description: Insecticidal effect on common cutworm (Spodoptera Litura)
After air-drying, it was placed in a plastic Petri dish with a diameter of 9 cm and inoculated with second-instar larvae of common cutworm, after which the dish was closed and then allowed to stand in a room thermostated at 25° C. Eight days after the inoculation, the dead and alive were counted. The mortality was calculated according to the following equation and the insecticidal effect was judged according to the criterion shown in Test Example 1. The test was carried out with triplicate groups of 10 insects. [formula]

[2] = system: diamondback moth (Plutella xylostella); assay: Insecticidal effect on diamondback moth (Test Example 1); format: in vivo; settings: for Insecticidal effect on diamondback moth (Test Example 1), judged grade: mortality judged according to the criterion shown in Test Example 1; for Insecticidal effect (Test Example 1), judged from mortality / Insecticidal effect, Test Example 1: diamondback moth; for Insecticidal effect (Test Example 1), judged from mortality: judged by the criterion of Test Example 1
Summary of the method: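 Eggs laid by adult moths on Chinese cabbage seedlings, which were immersed in test solution, air-dried and kept at 25 °C. Hatched insects counted 6 days after immersion and mortality calculated, with effect graded by criterion; triplicate groups of 10 insects.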

[3] = second-instar larvae of common cutworm
[4] = common cutworm second-instar larvae
[5] = mortality judged by criterion of Test Example 1
[6] = judged by the mortality criterion of Test Example 1

CC(C)NC(=O)c1c(C(=O)Nc2c(F)cccc2F)cccc1[N+](=O)[O-] [compound 641]
Insecticidal effect on common cutworm (Test Example 2), judged grade [1]: D (79-50) | Insecticidal effect on diamondback moth (Test Example 1), judged grade [2]: D (79-50)

Cc1c(NC(=O)c2cccc([N+](=O)[O-])c2C(=O)NC(C)C)ccc([N+](=O)[O-])c1C [compound 709]
Insecticidal effect on common cutworm (Test Example 2), judged grade [1]: A (100) | Insecticidal effect on diamondback moth (Test Example 1), judged grade [2]: A (100)

CC(C)(C)NC(=O)c1c(I)cccc1C(=O)Nc1ccc(C(F)(F)C(F)(F)F)c(Cl)c1 [compound 1609]
Insecticidal effect (Test Example 2), judged from mortality [1, 3]: A (100) | Insecticidal effect (Test Example 1), judged from mortality [2]: A (100)

CCN(CC)C(=O)c1c(C(=O)Nc2ccc(C(F)(F)C(F)(F)F)cc2C)cccc1C(F)(F)F [compound 1186]
Insecticidal effect, Test Example 2 [1, 4]: A (100) | Insecticidal effect, Test Example 1 [2, 5]: A (100)

Cc1cc(OC(F)(F)F)ccc1NC(=O)c1cccc(C(F)(F)F)c1C(=O)NC(C)C [compound 1183]
Insecticidal effect, Test Example 2 [1, 4]: A (100) | Insecticidal effect, Test Example 1 [2, 5]: A (100)

Cc1ccccc1NC(=O)c1cc(Cl)ccc1C(=O)NC(C)C [compound 183]
Insecticidal effect, Test Example 2 [1, 3]: B (99-90) | Insecticidal effect, Test Example 1 [2, 6]: A (100)

Cc1cc(C(F)(F)C(F)(F)F)ccc1NC(=O)c1cccc(I)c1C(=O)N[C@H](C)CBr [compound 1607]
Insecticidal effect (Test Example 2), judged from mortality [1, 3]: A (100) | Insecticidal effect (Test Example 1), judged from mortality [2]: A (100)

CCN(CC)C(=O)c1c(I)cccc1C(=O)N(CC)c1ccc(C(F)(F)C(F)(F)F)cc1C [compound 1179]
Insecticidal effect, Test Example 2 [1, 4]: A (100) | Insecticidal effect, Test Example 1 [2, 5]: A (100)

Cc1cc2c(cc1NC(=O)c1cccc(Cl)c1C(=O)NC(C)C)OC(F)(F)C(F)O2 (racemic) [compound 1597]
Insecticidal effect (Test Example 2), judged from mortality [1, 3]: A (100) | Insecticidal effect (Test Example 1), judged from mortality [2]: A (100)

CC(C)(C)NC(=O)c1c(I)cccc1C(=O)Nc1ccc2c(c1)OC(F)(F)C(F)O2 (stereo not drawn) [compound 1166]
Insecticidal effect, Test Example 2 [1, 4]: A (100) | Insecticidal effect, Test Example 1 [2, 5]: A (100)

CCN(CC)C(=O)c1c(C(=O)Nc2ccc(OC(F)(F)F)cc2C)cccc1C(F)(F)F [compound 1185]
Insecticidal effect, Test Example 2 [1, 4]: C (89-80) | Insecticidal effect, Test Example 1 [2, 5]: A (100)

Cc1ccc(NC(=O)c2c(Br)cccc2C(=O)NC(C)C)c(C)c1Cl [compound 309]
Insecticidal effect, Test Example 2 [1, 3]: A (100) | Insecticidal effect, Test Example 1 [2, 6]: A (100)

CC(C)NC(=O)c1c(I)cccc1C(=O)Nc1ccc(C(F)(C(F)(F)F)C(F)(F)F)cc1Br [compound 1699]
Insecticidal effect (Test Example 2), judged from mortality [1, 3]: A (100) | Insecticidal effect (Test Example 1), judged from mortality [2]: A (100)

Cc1cc(C(F)(C(F)(F)F)C(F)(F)F)c(Cl)cc1NC(=O)c1cccc(I)c1C(=O)NC(C)C [compound 1665]
Insecticidal effect (Test Example 2), judged from mortality [1, 3]: A (100) | Insecticidal effect (Test Example 1), judged from mortality [2]: A (100)

C#CCNC(=O)c1c(C(=O)Nc2cc(Cl)ccc2C)cccc1[N+](=O)[O-] [compound 869]
Insecticidal effect on common cutworm (Test Example 2), judged grade [1]: D (79-50) | Insecticidal effect on diamondback moth (Test Example 1), judged grade [2]: A (100)

COc1ccc(NC(=O)c2c(Br)cccc2C(=O)NC(C)C)c(C)c1C [compound 321]
Insecticidal effect, Test Example 2 [1, 3]: A (100) | Insecticidal effect, Test Example 1 [2, 6]: A (100)

Cc1cc(Cl)ccc1NC(=O)c1cccc([N+](=O)[O-])c1C(=O)NC(C)C [compound 664, 3-nitro-N^1-(4-chloro-2-methylphenyl)-N^2-isopropyl-phthalic acid diamide]
Insecticidal effect on common cutworm (Test Example 2), judged grade [1]: A (100) | Insecticidal effect on diamondback moth (Test Example 1), judged grade [2]: A (100)

CC(C)NC(=O)c1c(I)cccc1C(=O)Nc1cc2c(cc1Br)OC(F)(F)C(F)O2 (stereo not drawn) [compound 1684]
Insecticidal effect (Test Example 2), judged from mortality [1, 3]: A (100) | Insecticidal effect (Test Example 1), judged from mortality [2]: A (100)

CC(C)NC(=O)c1c(I)cccc1C(=O)Nc1ccc(OC(F)(F)F)cc1F [compound 1188]
Insecticidal effect, Test Example 2 [1, 4]: A (100) | Insecticidal effect, Test Example 1 [2, 5]: A (100)

CC(C)(C)NC(=O)c1c(I)cccc1C(=O)Nc1ccc(C(F)(C(F)(F)F)C(F)(F)F)cc1F [compound 1670]
Insecticidal effect (Test Example 2), judged from mortality [1, 3]: A (100) | Insecticidal effect (Test Example 1), judged from mortality [2]: A (100)

Cc1cc(C(F)(C(F)(F)F)C(F)(F)F)ccc1NC(=O)c1cccc(I)c1C(=O)NC(C)C [compound 1667]
Insecticidal effect (Test Example 2), judged from mortality [1, 3]: A (100) | Insecticidal effect (Test Example 1), judged from mortality [2]: A (100)

Cc1cc2c(cc1NC(=O)c1cccc(I)c1C(=O)NC(C)(C)C)OC(F)(F)C(F)O2 (racemic) [compound 1599]
Insecticidal effect (Test Example 2), judged from mortality [1, 3]: A (100) | Insecticidal effect (Test Example 1), judged from mortality [2]: A (100)

CC(C)NC(=O)c1cccc(F)c1C(=O)Nc1ccc(C(F)(F)C(F)(F)C(F)(F)F)cc1 [compound 535]
Insecticidal effect on common cutworm (Test Example 2), judged grade [1]: A (100) | Insecticidal effect on diamondback moth (Test Example 1), judged grade [2]: A (100)

Cc1cc(C(F)(F)C(F)(F)F)ccc1NC(=O)c1ccc(F)c(Cl)c1C(=O)NC(C)(C)C [compound 1257]
Insecticidal effect, Test Example 2 [1, 4]: A (100) | Insecticidal effect, Test Example 1 [2, 5]: A (100)

Cc1cc(C(F)(C(F)(F)F)C(F)(F)F)ccc1NC(=O)c1cccc(OC(F)(F)F)c1C(=O)NC(C)(C)C [compound 1237]
Insecticidal effect, Test Example 2 [1, 4]: A (100) | Insecticidal effect, Test Example 1 [2, 5]: A (100)

CCOc1cc(C(F)(C(F)(F)F)C(F)(F)F)ccc1NC(=O)c1cccc(I)c1C(=O)NC(C)C [compound 1693]
Insecticidal effect (Test Example 2), judged from mortality [1, 3]: A (100) | Insecticidal effect (Test Example 1), judged from mortality [2]: A (100)

COc1cc(C(F)(F)C(F)(F)F)ccc1NC(=O)c1cccc(I)c1C(=O)NC(C)(C)C [compound 1662]
Insecticidal effect (Test Example 2), judged from mortality [1, 3]: A (100) | Insecticidal effect (Test Example 1), judged from mortality [2]: A (100)

CCN(CC)C(=O)c1c(C(=O)Nc2ccc(OC(F)(F)F)cc2C)ccc(F)c1Cl [compound 1261]
Insecticidal effect, Test Example 2 [1, 4]: A (100) | Insecticidal effect, Test Example 1 [2, 5]: A (100)

CC(C)NC(=O)c1c(I)cccc1C(=O)Nc1ccc2oc(C(F)(F)F)nc2c1Cl [compound 1682]
Insecticidal effect (Test Example 2), judged from mortality [1, 3]: A (100) | Insecticidal effect (Test Example 1), judged from mortality [2]: A (100)

CC(C)NC(=O)c1c(I)cccc1C(=O)Nc1cc2c(cc1Cl)OC(F)(F)C(F)O2 (racemic) [compound 1601]
Insecticidal effect (Test Example 2), judged from mortality [1, 3]: A (100) | Insecticidal effect (Test Example 1), judged from mortality [2]: A (100)

CC(C)NC(=O)c1cccc(I)c1C(=O)Nc1ccc(SC(F)(F)C(F)(F)C(F)(F)F)cc1 [compound 424]
Insecticidal effect, Test Example 2 [1, 3]: A (100) | Insecticidal effect, Test Example 1 [2, 6]: A (100)

CC(C)(C)NC(=O)c1c(I)cccc1C(=O)Nc1ccc(OC(F)(F)F)cc1F [compound 1189]
Insecticidal effect, Test Example 2 [1, 4]: A (100) | Insecticidal effect, Test Example 1 [2, 5]: A (100)

CC(C)NC(=O)c1c(I)cccc1C(=O)Nc1ccc(C(F)(C(F)(F)F)C(F)(F)F)c(F)c1 [compound 1695]
Insecticidal effect (Test Example 2), judged from mortality [1, 3]: A (100) | Insecticidal effect (Test Example 1), judged from mortality [2]: A (100)

CCN(CC)C(=O)c1ccccc1C(=O)Nc1ccc(C(F)(F)F)cc1 [compound 12]
Insecticidal effect, Test Example 2 [1, 3]: D (79-50) | Insecticidal effect, Test Example 1 [2, 6]: A (100)

Cc1cc(OCC(F)(F)C(F)F)ccc1NC(=O)c1cccc(Cl)c1C(=O)NC(C)C [compound 147]
Insecticidal effect, Test Example 2 [1, 3]: C (89-80) | Insecticidal effect, Test Example 1 [2, 6]: A (100)

Cc1cc([N+](=O)[O-])ccc1NC(=O)c1cccc([N+](=O)[O-])c1C(=O)NC(C)C [compound 706]
Insecticidal effect on common cutworm (Test Example 2), judged grade [1]: A (100) | Insecticidal effect on diamondback moth (Test Example 1), judged grade [2]: A (100)

Cc1c(NC(=O)c2cccc(I)c2C(=O)NC(C)C)ccc(C(F)(F)C(F)(F)F)c1C [compound 1612]
Insecticidal effect (Test Example 2), judged from mortality [1, 3]: A (100) | Insecticidal effect (Test Example 1), judged from mortality [2]: A (100)

Cc1cc(C(F)(F)C(F)(F)F)ccc1NC(=O)c1cccc(C(F)(F)F)c1C(=O)NC(C)C [compound 1184]
Insecticidal effect, Test Example 2 [1, 4]: A (100) | Insecticidal effect, Test Example 1 [2, 5]: A (100)

CC(C)NC(=O)c1c(C(=O)Nc2ccc(OC(F)F)c(C(F)(F)F)c2)cccc1[N+](=O)[O-] [compound 693]
Insecticidal effect on common cutworm (Test Example 2), judged grade [1]: A (100) | Insecticidal effect on diamondback moth (Test Example 1), judged grade [2]: A (100)
